Experimental data: patent US20180325914A1, “INCREASING STORAGE OF VITAMIN A, VITAMIN D AND/OR LIPIDS” (Salk Institute for Biological Studies, priority 2014, published 2018)

Test system: primary HSCs

Compound: Cc1sc2c(c1C)C(c1ccc(Cl)cc1)=N[C@@H](CC(=O)OC(C)(C)C)c1nnc(C)n1-2 [JQ1, (S)-tert-butyl 2-(4-(4-chlorophenyl)-2,3,9-trimethyl-6H-thieno[3,2-f][1,2,4]triazolo[4,3-a][1,4]diazepin-6-yl)acetate]
- Ccnb2 value_2 (mRNA-Seq, sample Day_6_JQ1): 22.7753
- Ccnf value_2 (mRNA-Seq, sample Day_6_JQ1): 11.7934
- Cdc45 value_2 (mRNA-Seq, sample Day_6_JQ1): 7.419
- Cdca3 value_2 (mRNA-Seq, sample Day_6_JQ1): 31.4087
- Cdk1 value_2 (mRNA-Seq, sample Day_6_JQ1): 28.779
- Cdkn2c value_2 (mRNA-Seq, sample Day_6_JQ1): 16.1063
- Cend1 value_2 (mRNA-Seq, sample Day_6_JQ1): 7.615
- Cenpe value_2 (mRNA-Seq, sample Day_6_JQ1): 9.129
- Cenph value_2 (mRNA-Seq, sample Day_6_JQ1): 8.899
- Chaf1a value_2 (mRNA-Seq, sample Day_6_JQ1): 16.8473
- Ckap2l value_2 (mRNA-Seq, sample Day_6_JQ1): 18.5683
- Ckb value_2 (mRNA-Seq, sample Day_6_JQ1): 310.111
- Cks1b value_2 (mRNA-Seq, sample Day_6_JQ1): 113.98
- Colec11 value_2 (mRNA-Seq, sample Day_6_JQ1): 68.8593
- Cpt1c value_2 (mRNA-Seq, sample Day_6_JQ1): 30.5415
- Ctnnbip1 value_2 (mRNA-Seq, sample Day_6_JQ1): 14.2922
- Cyb5r3 value_2 (mRNA-Seq, sample Day_6_JQ1): 256.005
- Cyp1b1 value_2 (mRNA-Seq, sample Day_6_JQ1): 100.635
- D2Ertd750e value_2 (mRNA-Seq, sample Day_6_JQ1): 10.3027
- Dact3 value_2 (mRNA-Seq, sample Day_6_JQ1): 26.3749
- Dag1 value_2 (mRNA-Seq, sample Day_6_JQ1): 162.916
- Dcbld2 value_2 (mRNA-Seq, sample Day_6_JQ1): 73.5335
- Dcxr value_2 (mRNA-Seq, sample Day_6_JQ1): 36.0469
- Ddr2 value_2 (mRNA-Seq, sample Day_6_JQ1): 63.2059
- Diap3 value_2 (mRNA-Seq, sample Day_6_JQ1): 10.7413
- Dlgap5 value_2 (mRNA-Seq, sample Day_6_JQ1): 10.9428
- Dzip3 value_2 (mRNA-Seq, sample Day_6_JQ1): 8.399
- E2f1 value_2 (mRNA-Seq, sample Day_6_JQ1): 21.0746
- Elovl5 value_2 (mRNA-Seq, sample Day_6_JQ1): 65.5058
- Eno2 value_2 (mRNA-Seq, sample Day_6_JQ1): 9.68
- Ephb3 value_2 (mRNA-Seq, sample Day_6_JQ1): 16.6667
- Ephx1 value_2 (mRNA-Seq, sample Day_6_JQ1): 132.832
- Evc value_2 (mRNA-Seq, sample Day_6_JQ1): 10.4125
- Ext2 value_2 (mRNA-Seq, sample Day_6_JQ1): 87.8458
- Fam171b value_2 (mRNA-Seq, sample Day_6_JQ1): 12.8947
- Fbxo5 value_2 (mRNA-Seq, sample Day_6_JQ1): 11.9069
- Fignl1 value_2 (mRNA-Seq, sample Day_6_JQ1): 12.5326
- Foxm1 value_2 (mRNA-Seq, sample Day_6_JQ1): 15.7609
- Fscn1 value_2 (mRNA-Seq, sample Day_6_JQ1): 385.037
- Gas1 value_2 (mRNA-Seq, sample Day_6_JQ1): 80.3077
- Gmnn value_2 (mRNA-Seq, sample Day_6_JQ1): 19.8433
- Gpm6b value_2 (mRNA-Seq, sample Day_6_JQ1): 19.7607
- Gpx1 value_2 (mRNA-Seq, sample Day_6_JQ1): 332.885
- Gstt3 value_2 (mRNA-Seq, sample Day_6_JQ1): 14.4369
- Gyg value_2 (mRNA-Seq, sample Day_6_JQ1): 82.2854
- Hadh value_2 (mRNA-Seq, sample Day_6_JQ1): 56.1898
- Hand2 value_2 (mRNA-Seq, sample Day_6_JQ1): 110.598
- Hmmr value_2 (mRNA-Seq, sample Day_6_JQ1): 17.0843
- Id3 value_2 (mRNA-Seq, sample Day_6_JQ1): 1063.75
- Ildr2 value_2 (mRNA-Seq, sample Day_6_JQ1): 11.4416
- Kif2c value_2 (mRNA-Seq, sample Day_6_JQ1): 11.8118
- Kif4 value_2 (mRNA-Seq, sample Day_6_JQ1): 7.332
- Kif11 value_2 (mRNA-Seq, sample Day_6_JQ1): 10.8132
- Kif20b value_2 (mRNA-Seq, sample Day_6_JQ1): 7.299
- Kif22 value_2 (mRNA-Seq, sample Day_6_JQ1): 14.9542
- Lamb2 value_2 (mRNA-Seq, sample Day_6_JQ1): 41.1365
- Lhfp value_2 (mRNA-Seq, sample Day_6_JQ1): 371.966
- Lphn1 value_2 (mRNA-Seq, sample Day_6_JQ1): 20.1469
- Melk value_2 (mRNA-Seq, sample Day_6_JQ1): 7.467
- Mfge8 value_2 (mRNA-Seq, sample Day_6_JQ1): 379.144
- Mki67 value_2 (mRNA-Seq, sample Day_6_JQ1): 27.8603
- Mmp11 value_2 (mRNA-Seq, sample Day_6_JQ1): 36.1215
- Mras value_2 (mRNA-Seq, sample Day_6_JQ1): 15.4481
- Mrc2 value_2 (mRNA-Seq, sample Day_6_JQ1): 111.626
- Msx1 value_2 (mRNA-Seq, sample Day_6_JQ1): 5.962
- Ndc80 value_2 (mRNA-Seq, sample Day_6_JQ1): 8.604
- Nkd1 value_2 (mRNA-Seq, sample Day_6_JQ1): 16.9471
- Nuf2 value_2 (mRNA-Seq, sample Day_6_JQ1): 9.227
- Oat value_2 (mRNA-Seq, sample Day_6_JQ1): 213.454
- Osbpl5 value_2 (mRNA-Seq, sample Day_6_JQ1): 41.3593
- Osr1 value_2 (mRNA-Seq, sample Day_6_JQ1): 16.6329
- Pbx1 value_2 (mRNA-Seq, sample Day_6_JQ1): 48.4716
- Pld3 value_2 (mRNA-Seq, sample Day_6_JQ1): 190.597
- Plxdc2 value_2 (mRNA-Seq, sample Day_6_JQ1): 26.1768
- Prc1 value_2 (mRNA-Seq, sample Day_6_JQ1): 30.6759
- Ptgr1 value_2 (mRNA-Seq, sample Day_6_JQ1): 25.0296
- Pxmp4 value_2 (mRNA-Seq, sample Day_6_JQ1): 17.7124
- Pygb value_2 (mRNA-Seq, sample Day_6_JQ1): 42.1403
- Racgap1 value_2 (mRNA-Seq, sample Day_6_JQ1): 22.85
- Rarb value_2 (mRNA-Seq, sample Day_6_JQ1): 70.6683
- S100a6 value_2 (mRNA-Seq, sample Day_6_JQ1): 1608.42
- Scrn1 value_2 (mRNA-Seq, sample Day_6_JQ1): 7.911
- Sipa1l1 value_2 (mRNA-Seq, sample Day_6_JQ1): 28.6555
- Slit2 value_2 (mRNA-Seq, sample Day_6_JQ1): 14.8622
- Smc2 value_2 (mRNA-Seq, sample Day_6_JQ1): 19.557
- Smc4 value_2 (mRNA-Seq, sample Day_6_JQ1): 33.8803
- Snap47 value_2 (mRNA-Seq, sample Day_6_JQ1): 103.523
- Spc24 value_2 (mRNA-Seq, sample Day_6_JQ1): 8.494
- Spry1 value_2 (mRNA-Seq, sample Day_6_JQ1): 44.5222
- St5 value_2 (mRNA-Seq, sample Day_6_JQ1): 35.2195
- Tacc3 value_2 (mRNA-Seq, sample Day_6_JQ1): 18.1794
- Tfdp2 value_2 (mRNA-Seq, sample Day_6_JQ1): 10.5854
- Tinagl1 value_2 (mRNA-Seq, sample Day_6_JQ1): 326.013
- Tmem53 value_2 (mRNA-Seq, sample Day_6_JQ1): 17.4035
- Tmsb10 value_2 (mRNA-Seq, sample Day_6_JQ1): 1117.74
- Trim59 value_2 (mRNA-Seq, sample Day_6_JQ1): 27.2401
- Tro value_2 (mRNA-Seq, sample Day_6_JQ1): 7.307
- Trp53inp2 value_2 (mRNA-Seq, sample Day_6_JQ1): 99.8045
- Twist1 value_2 (mRNA-Seq, sample Day_6_JQ1): 19.9784
- Uhrf1 value_2 (mRNA-Seq, sample Day_6_JQ1): 16.7743
- Vgll3 value_2 (mRNA-Seq, sample Day_6_JQ1): 95.3643
- Wdr35 value_2 (mRNA-Seq, sample Day_6_JQ1): 9.874
- Wt1 value_2 (mRNA-Seq, sample Day_6_JQ1): 29.0084
- Zbtb7c value_2 (mRNA-Seq, sample Day_6_JQ1): 7.895
- number of genes upregulated during HSC activation (more than 900) that are suppressed (primary HSCs, days 3 and 6 vs day 1, JQ1 500 nM): more than 400 genes
- induction of key marker genes Col1a1, Acta2, Col1a2 and Des during HSC activation (primary HSCs, JQ1 500 nM, mRNA-Seq and qRT-PCR): drastically abolished
